In this experiment the target is T1, LPAR1 (Homo sapiens, UniProt Q92633).
T1 construct: host or cells: U2OS
The experiment is described as follows: LPAR1 FLIPR Assay. The format is cell-based. Particulars: U2OS cells stably expressing LPAR1, LPA (EC80), Calcium 6 FLIPR dye; for Emax: read-out: Maximum Inhibition. As to the method:
U2OS cells stably expressing LPAR1 (Life Technologies #K1519A) were plated at 12000 cells/well in growth medium (McCoy's 5A medium(Life Technologies 16600-082)) with 10% dFBS (Life Technologies 26400-036), 0.1 mM non-essential amino acids, 25 mM HEPES, 1 mM sodium pyruvate, 1% penicillin/streptomycin, 50 μg/mL hygromycin, and 100 μg/mL Geneticin® in black-walled, clear-bottom 384-well plates (Corning #3683) and incubated in humidified 5% CO2 at 37° C. overnight. On the day of the assay, medium was removed and 30 μL of 5% Calcium 6 FLIPR dye in assay buffer-HBSS (Life Technologies #14025) containing 20 mM HEPES (Life Technologies #15630-080) was added to the cells. Cells were incubated at 37° C. in the dark for 2 hours. Compounds were 3-fold serial diluted from 10 mM for 11-points using dimethyl sulfoxide. 1 μL of compound in DMSO was diluted in 82.3 μL assay buffer immediately before the assay. Using a FLIPR® TETRA® system, 15 μL of the (4×) compound solutions were first added to the cells, then 15 μL of LPA (EC80) diluted in of assay buffer supplemented with 0.1% BSA was added 3 minutes later to activate the receptor. Changes in fluorescence were measured at wavelengths of 515-575 nm over the course of the experimental run. IC50 values were calculated from curve fits of the ratio data using a four-parameter logistic Hill equation (Assay Explorer 3.3 Client).

The values below come from patent US20190119200A1, “TERTIARY AMIDES AND METHOD OF USE” (AbbVie Inc., priority 2016, published 2019).

T1 sequence (Q92633 whole entry): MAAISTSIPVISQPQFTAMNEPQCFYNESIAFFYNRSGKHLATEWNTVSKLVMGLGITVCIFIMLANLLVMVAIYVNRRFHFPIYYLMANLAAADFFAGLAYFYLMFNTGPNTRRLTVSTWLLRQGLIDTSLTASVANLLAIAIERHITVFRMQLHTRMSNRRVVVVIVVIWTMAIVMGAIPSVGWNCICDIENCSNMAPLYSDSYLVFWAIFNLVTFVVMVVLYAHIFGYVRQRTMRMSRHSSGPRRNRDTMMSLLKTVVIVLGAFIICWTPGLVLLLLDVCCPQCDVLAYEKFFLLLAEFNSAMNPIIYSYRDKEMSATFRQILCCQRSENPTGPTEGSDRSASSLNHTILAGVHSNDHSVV

A word on the IC50: it is the concentration at which inhibition is half-maximal. As for `COc1cc(C(=O)N(CCCCP(=O)(O)O)CCCc2ccccc2)cc(OC)c1C` [Example 71, {4-[(3,5-dimethoxy-4-methylbenzoyl)(3-phenylpropyl)amino]butyl}phosphonic Acid], the half-inhibitory concentration (IC50) came to 12 nM and the Emax was 91%.

Regarding `Cc1cc(C(=O)N(CCCCC(=O)O)CCCc2ccccc2)c2c(C)noc2n1` [Example 172, 5-[(3,6-dimethyl[1,2]oxazolo[5,4-b]pyridine-4-carbonyl)(3-phenylpropyl)amino]pentanoic Acid], the half-inhibitory concentration (IC50) was found to be 1460 nM and the Emax was found to be 63%.

Turning to `COc1cc(C(=O)N(CCCc2ccccc2)CCOC(=O)NS(=O)(=O)c2ccc(F)cc2)cc(OC)c1C` [Example 183, 2-[(3,5-dimethoxy-4-methylbenzoyl)(3-phenylpropyl)amino]ethyl (4-fluorobenzene-1-sulfonyl)carbamate], the IC50 is greater than 10000 nM and the Emax amounted to 30%.

Take `COc1cc(C(=O)N(CCCc2ccccc2)C[C@H]2CCC(=O)O2)cc(OC)c1C` [Example 181, 3,5-dimethoxy-4-methyl-N-{[(2R)-5-oxooxolan-2-yl]methyl}-N-(3-phenylpropyl)benzamide]: the IC50 came out at 486 nM and the Emax was found to be 80%.

Take `COc1ccc(CCCN(CCCCC(=O)O)C(=O)c2cc(OC)c(C)c(OC)c2)cc1` [Example 43, 5-{(3,5-dimethoxy-4-methylbenzoyl)[3-(4-methoxyphenyl)propyl]amino}pentanoic Acid]: the IC50 worked out at 23300 nM and the Emax stood at 55%.

Turning to `COc1cc(C(=O)N(CCCCC(=O)O)CCCc2ccc(C)cc2)cc(OC)c1C` [Example 42, 5-{(3,5-dimethoxy-4-methylbenzoyl)[3-(4-methylphenyl)propyl]amino}pentanoic Acid], the 50% inhibitory concentration (IC50) was 236 nM and the Emax was 90%.

For the molecule `O=C(O)CCCCN(CCCc1ccccc1)C(=O)C1(c2ccc(OC(F)(F)F)cc2)CC1` [Example 25, 5-[(3-phenylpropyl){1-[4-(trifluoromethoxy)phenyl]cyclopropane-1-carbonyl}amino]pentanoic Acid], the IC50 stood at 29300 nM and the Emax was 48%.

`COc1cc(C(=O)N(CCCc2ccccc2)C(C)CCCC(=O)O)cc(OC)c1C` (centres unmarked) [Example 164, 5-[(3,5-dimethoxy-4-methylbenzoyl)(3-phenylpropyl)amino]hexanoic Acid]: the 50% inhibitory concentration (IC50) worked out at 237 nM and the Emax was 76%.

As for `CCOc1cc(C(=O)N(CCCCC(=O)O)CCCc2ccccc2)ccn1` [Example 14, 5-[(2-ethoxypyridine-4-carbonyl)(3-phenylpropyl)amino]pentanoic Acid], the IC50 amounted to 942 nM and the Emax worked out at 41%.

Turning to `COc1cc(C(=O)N(CCCCC(=O)O)[C@H](C)CCc2ccccc2)cc(OC)c1C` [Example 153, 5-{(3,5-dimethoxy-4-methylbenzoyl)[(2R)-4-phenylbutan-2-yl]amino}pentanoic Acid], the concentration for half-maximal inhibition (IC50) was determined as 127 nM and the Emax was determined as 83%.

Regarding `Cn1cc(C(=O)N(CCCCC(=O)O)CCCc2ccccc2)c2ccccc2c1=O` [Example 169, 5-[(2-methyl-1-oxo-1,2-dihydroisoquinoline-4-carbonyl)(3-phenylpropyl)amino]pentanoic Acid], the 50% inhibitory concentration (IC50) turned out to be 3090 nM and the Emax stood at 71%.

Turning to `COc1cc(OC)cc(C(=O)N(CCCc2ccccc2)CCSCC(=O)O)c1` [Example 101, ({2-[(3,5-dimethoxybenzoyl)(3-phenylpropyl)amino]ethyl}sulfanyl)acetic Acid], the IC50 was found to be 6950 nM and the Emax amounted to 59%.

`O=C(O)CCCCN(CCCc1ccccc1)C(=O)C1CC(=O)Nc2ccc(F)cc21` (centres unmarked) [Example 168, 5-[(6-fluoro-2-oxo-1,2,3,4-tetrahydroquinoline-4-carbonyl)(3-phenylpropyl)amino]pentanoic Acid]: the half-maximal inhibitory concentration (IC50) is 1100 nM and the Emax was determined as 62%.

As for `COc1ccc2c(C(=O)N(CCCCC(=O)O)CCCc3ccccc3)c[nH]c2c1` [Example 65, 5-[(6-methoxy-1H-indole-3-carbonyl)(3-phenylpropyl)amino]pentanoic Acid], the IC50 was 5020 nM and the Emax was 49%.

`COc1cc(C(=O)N(CCCCC(=O)O)CCCc2ccccc2)cc(OC)c1OCCO` [Example 88, 5-{[4-(2-hydroxyethoxy)-3,5-dimethoxybenzoyl](3-phenylpropyl)amino}pentanoic Acid]: the half-inhibitory concentration (IC50) was 293 nM and the Emax turned out to be 91%.

In the case of `COc1cc(C(=O)N(CCCCC(=O)O)[C@@H](C)CCc2ccccc2)cc(OC)c1C` [Example 154, 5-{(3,5-dimethoxy-4-methylbenzoyl) [(2S)-4-phenylbutan-2-yl]amino}pentanoic Acid], the IC50 was 225 nM and the Emax turned out to be 69%.

Regarding “5-[(3-methoxy-4-methylbenzoyl)(3-phenylpropyl)amino]pentanoic Acid [Example 28]”, the IC50 came out at 398 nM and the “Maximum Inhibition” value stood at 72%.

Consider `COc1cc(C(=O)N(CCCc2ccccc2)CC[S+]([O-])CC(=O)O)cc(OC)c1C` (centres unmarked) [Example 53, {2-[(3,5-dimethoxy-4-methylbenzoyl)(3-phenylpropyl)amino]ethanesulfinyl}acetic Acid], for which the IC50 was found to be 239 nM and the Emax came out at 63%.

As to `COc1cc(C(=O)N(CCCc2ccccc2)CC(=O)NCC(=O)O)cc(OC)c1C` [Example 51, N-(3,5-dimethoxy-4-methylbenzoyl)-N-(3-phenylpropyl)glycylglycine], the 50% inhibitory concentration (IC50) amounted to 238 nM and the Emax came to 62%.

Turning to `COc1cc(C(=O)N(CCCCC(=O)O)CCCc2ccc(Cl)cc2)cc(OC)c1C` [Example 36, 5-{[3-(4-chlorophenyl)propyl](3,5-dimethoxy-4-methylbenzoyl)amino}pentanoic Acid], the IC50 was 600 nM and the Emax turned out to be 83%.

Turning to `COc1cc(C(=O)N(C/C=C/CC(=O)O)CCCc2ccccc2)cc(OC)c1C` [Example 121, (3E)-5-[(3,5-dimethoxy-4-methylbenzoyl)(3-phenylpropyl)amino]pent-3-enoic Acid], the IC50 turned out to be 503 nM and the Emax is 86%.

`O=C(O)CCCCN(CCCc1ccccc1)C(=O)C1(c2ccncc2)CC1` [Example 64, 5-{(3-phenylpropyl)[1-(pyridin-4-yl)cyclopropane-1-carbonyl]amino}pentanoic Acid]: the IC50 came out at 1230 nM and the Emax worked out at 54%.

In the case of `COc1cc(C(=O)N(CCCCC(=O)NS(=O)(=O)c2ccc(F)cc2)CCCc2ccccc2)cc(OC)c1C` [Example 140, N-{5-[(4-fluorobenzene-1-sulfonyl)amino]-5-oxopentyl}-3,5-dimethoxy-4-methyl-N-(3-phenylpropyl)benzamide], the IC50 was found to be 143 nM and the Emax was 89%.

In the case of `CCOC1CC1(C(=O)N(CCCCC(=O)O)CCCc1ccccc1)c1ccc(OC)cc1` (centres unmarked) [Example 149, 5-{[2-ethoxy-1-(4-methoxyphenyl)cyclopropane-1-carbonyl](3-phenylpropyl)amino}pentanoic Acid], the 50% inhibitory concentration (IC50) was determined as 838 nM and the Emax came out at 72%.

Take `COc1cc(C(=O)N(CCCc2ccc(F)cc2F)CCSCC(=O)O)cc(OC)c1C` [Example 114, [(2-{[3-(2,4-difluorophenyl)propyl](3,5-dimethoxy-4-methylbenzoyl)amino}ethyl)sulfanyl]acetic Acid]: the IC50 came out at 671 nM and the Emax was found to be 76%.

On to `COc1cc(OC(F)(F)F)cc(C(=O)N(CCCCC(=O)O)CCCc2ccccc2)c1` [Example 29, 5-{[3-methoxy-5-(trifluoromethoxy)benzoyl](3-phenylpropyl)amino}pentanoic Acid], for which the IC50 came to 309 nM and the Emax came out at 79%.

Take `COc1cc(C(=O)N(CCCCC(=O)O)CCCc2ccccc2)cc2ccoc12` [Example 24, 5-[(7-methoxy-1-benzofuran-5-carbonyl)(3-phenylpropyl)amino]pentanoic Acid]: the IC50 is 481 nM and the Emax was 58%.

As to `Cc1c(Cl)cc(C(=O)N(CCCCC(=O)O)CCCc2ccccc2)cc1Cl` [Example 16, 5-[(3,5-dichloro-4-methylbenzoyl)(3-phenylpropyl)amino]pentanoic Acid], the IC50 was 985 nM and the Emax turned out to be 70%.

With `COc1c(F)cc(C(=O)N(CCCCC(=O)O)CCCc2ccccc2)cc1F` [Example 13, 5-[(3,5-difluoro-4-methoxybenzoyl)(3-phenylpropyl)amino]pentanoic Acid], the IC50 was 6170 nM and the Emax stood at 48%.

As for `O=C(O)CCCCN(CCCc1ccccc1)C(=O)C1(c2ccc3c(c2)OCO3)CC1` [Example 27, 5-{[1-(2H-1,3-benzodioxol-5-yl)cyclopropane-1-carbonyl](3-phenylpropyl)amino}pentanoic Acid], the IC50 was determined as 1060 nM and the Emax was 65%.

In the case of `CCOc1cc(C(=O)N(CCCCC(=O)O)CCCc2ccccc2)cc(OCC)c1OCC` [Example 21, 5-[(3-phenylpropyl)(3,4,5-triethoxybenzoyl)amino]pentanoic Acid], the half-inhibitory concentration (IC50) is 224 nM and the Emax came to 82%.
